Patent publication US20190091248A1, “AGENT FOR INCREASING INTESTINAL BUTYRIC ACID AND PROLIFERATION AGENT FOR BUTYRIC ACID-PRODUCING BACTERIA” (B FOOD SCIENCE CO., LTD., priority 2016, published 2019)

How the values were obtained:
[1] = system: short chain fatty acids in cecal contents; experiment: Amount of intestinal short chain fatty acid in cecal contents upon intake of 1-kestose (GC/MS); type: in vivo, SD rats; settings: for concentration of butyric acid in cecal contents: 30 days ad libitum; for amount of butyric acid in cecal contents: 30 days, calculated from concentration, Group A 781.14 μg
Experimental: (1) Breeding of Rats with Giving Oral Intake of 1-Kestose
The feeds containing 0, 0.5, 1.0, 2.5, and 5% by mass of 1-kestose were prepared by CLEA Japan, Inc. on commission. The composition of the feeds is described below. 40 SD rats (Japan SLC, Inc.) were divided into 5 groups of 8 animals and designated as Groups A to E. The rats were maintained for 30 days with ad libitum feeding of the feed without 1-kestose to Group A and of the ones with 1-kestose to Groups B to E, respectively. The rats were maintained under conditions at 23±1° C. in temperature with 12 hours of light periods (from 8:00 to 20:00) and 12 hours of dark periods (from 20:00 to 8:00).
[Composition (in % by mass) of feeds] Cornstarch 39.7486, milk casein 20, pregelatinized cornstarch 13.2, granulated sugar and/or 1-kestose (99% by mass in purity, B Food Science Co., Ltd.) 10, purified soybean oil 7, cellulose powder 5, mineral mixture 3.5, vitamin mixture 1, L-cystine 0.3, choline bitartrate 0.25, tert-butylhydroquinone 0.0014.
The rats in each group described in Example 1 (1) were dissected and their ceca were extracted. The contents of the ceca were collected and weighed. The concentrations of short chain fatty acids (butyric acid, propionic acid, isobutyric acid, acetic acid, isovaleric acid, and valeric acid) in the cecal contents were measured with a gas chromatography-mass spectrometer (GC/MS). The amounts of the short chain fatty acids in the cecal contents were calculated from the results of the measurement of the short chain fatty acid concentrations. Subsequently, the means of concentrations and amounts of short chain fatty acids for each group were calculated and shown in bar graphs. The results are illustrated in FIGS. 1 to 3.

[2] = system: Clostridium cluster-XIVa and Clostridium cluster-XIVb (a group of butyric acid-producing bacteria); experiment: Real-time PCR of 16S rDNA copy number in cecal contents upon intake of 1-kestose; type: in vivo, SD rats
Experimental: (§1) The amounts of the following 4 microorganisms in the cecal contents of rats in Groups A and E described in Example 1 (1) were measured by real-time PCR.
2. Clostridium cluster-XIVa and Clostridium cluster-XIVb (a group of butyric acid-producing bacteria),
(§2) Specifically, the cecal contents of Groups A and E were disrupted with the bead beating system “FastPrep FP100A” (MP Biomedicals, LLC.). Subsequently, genomic DNA was extracted with the nucleic acid extraction instrument “Magtration® System 12GC” and its exclusive reagent “MagDEA® DNA 200” (Precision System Science Co., Ltd.) according to the instructions. Using this genomic DNA as a template, the real-time PCR was performed with primers specific for the 16S rDNAs of the aforementioned 4 microorganisms, the real-time PCR reagent “SYBR® Premix Ex Taq II (Tli RNaseH Plus)” (Takara), and the real-time PCR device “Rotor-Gene Q” (QIAGEN N.V.) and the copy numbers of the 16S rDNA from each microorganism per 1 g of the cecal contents were determined. The means and standard deviation of the copy numbers were calculated for each group and illustrated in bar graphs.
(§3) The sequences of the primers specific for 16S rDNA of each microorganism are listed below.
(§4) The standard curve was made from the result of real-time PCR for each microorganism under the same conditions using a plasmid DNA in which a part of the following sequence is incorporated as a template.
2. Clostridium clusters-XIVa and -XIVb (a group of butyric acid-producing bacteria); 16S rDNA sequence (SEQ ID NO: 10) of Clostridium clostridioforme JCM1291T

[3] = system: The genus Bifidobacterium; experiment: as above; type: in vivo, SD rats; settings: Group E
Experimental: as §1
1. The genus Bifidobacterium,
as §2, §3, §4
1. […]

The genus Lactobacillus = experiment: as above; type: in vivo, SD rats
Experimental: as §1
3. The genus Lactobacillus
as §2, §3, §4
3. […]

Akkermansia muciniphila = experiment: as above; type: in vivo, SD rats
Experimental: as §1
4. Akkermansia muciniphila
as §2, §3, §4
4. […]

[4] = Food processing and ingredients, Vol. 49, No. 12, p. 9, 2014; cited from earlier work
[5] = system: ulcerative colitis model rats induced by dextran sulfate sodium (DSS); settings: injection into the intestine; cited from earlier work
[6] = system: fatty degeneration and inflammation in the liver by the intake of high-fat meals; settings: oral administration, 0.02 g/kg body weight per day; cited from earlier work
[7] = system: childhood diabetes model rat; settings: intraperitoneal, 500 mg/kg of body weight per day (in terms of the dose of sodium butyrate); cited from earlier work
[8] = system: LIM1215, human colorectal cancer cells; settings: final concentration of 1 mmol/L; cited from earlier work
[9] = system: obesity induced by high-fat meals; settings: cited from earlier work
[10] = Group B: feed with 0.5% by mass 1-kestose
[11] = Group C: feed with 1.0% by mass 1-kestose
[12] = Group D: feed with 2.5% by mass 1-kestose
[13] = Group E: feed with 5% by mass 1-kestose
[14] = Groups B, C, D and E, cecal contents

For OC[C@H]1O[C@@](CO)(OC[C@@]2(O[C@H]3O[C@H](CO)[C@@H](O)[C@H](O)[C@H]3O)O[C@H](CO)[C@@H](O)[C@@H]2O)[C@@H](O)[C@@H]1O [1-kestose], the “increase of butyric acid amount relative to Group A” value [1, 10] was “approximately 1.4 times of that in Group A”, the “increase of butyric acid concentration relative to Group A” value [1, 10] was “approximately 1.4 times of that in Group A” and the “concentration of butyric acid in cecal contents” value (“concentration of butyric acid” for short) ([1]; Group B: feed with 0.5% by mass 1-kestose, daily intake 0.27 g/kg body weight, Group A (no 1-kestose) 205.86 μg/g) was 288.09 µg/g. The “amount of butyric acid in cecal contents” value [1, 10] was 1069.37 µg, the “increase of butyric acid amount relative to Group A” value [1, 11] was “approximately 1.4 times of that in Group A” and the “increase of butyric acid concentration relative to Group A” value [1, 11] was “approximately 1.5 times of that in Group A”. The “concentration of butyric acid” value ([1]; Group C: feed with 1.0% by mass 1-kestose, Group A 205.86 μg/g) was 314.59 µg/g, the “amount of butyric acid in cecal contents” value [1, 11] was 1107.92 µg and the “increase of butyric acid amount relative to Group A” value [1, 12] was “approximately 3.6 times of that in Group A”. For the same compound, the “increase of butyric acid concentration relative to Group A” value [1, 12] was “approximately 3.7 times of that in Group A”, the “concentration of butyric acid” value ([1]; Group D: feed with 2.5% by mass 1-kestose, Group A 205.86 μg/g) was 754.17 µg/g and the “amount of butyric acid in cecal contents” value [1, 12] was 2891.65 µg. The “increase of butyric acid amount relative to Group A” value [1, 13] was “approximately 14.5 times of that in Group A”, the “increase of butyric acid concentration relative to Group A” value [1, 13] was “approximately 10 times of that in Group A” and the “concentration of butyric acid” value ([1]; Group E: feed with 5% by mass 1-kestose, 1.34 g/kg body weight, Group A 205.86 μg/g) was 2005.26 µg/g. For the same compound, the “amount of butyric acid in cecal contents” value [1, 13] was 11943.88 µg, the “concentrations and amounts of acetic acid in comparison with Group A” value [1, 14] was “significantly increased” and the “concentrations and amounts of isobutyric acid in comparison with Group A” value [1, 14] was “significantly decreased”. For the same compound, the “concentrations and amounts of isovaleric acid in comparison with Group A” value [1, 14] was “not significantly different”, the “concentrations and amounts of propionic acid in comparison with Group A” value [1, 14] was “not significantly different” and the “concentrations and amounts of valeric acid in comparison with Group A” value [1, 14] was “significantly decreased”. The “concentrations and amounts of butyric acid in comparison with Group A” value ([1]; any of Groups B to E (0.5 to 5% by mass 1-kestose in feed)) was “markedly increased”, the “copy number of 16S rDNA from the group of butyric acid-producing bacteria relative to Group A” value ([2]; Group E) was “approximately 5 times of that in Group A” and the “copy number of 16S rDNA from the group of butyric acid-producing bacteria, comparison with Group A in words” value ([2]; Group E) was “significantly increased”. The “copy number of 16S rDNA from Clostridium cluster XIV (a group of butyric acid-producing bacteria)” value ([2]; Group E (5% by mass 1-kestose in feed, 30 days), Group A 5071250000) was 25287500000 per 1 g of the cecal contents, the “copy number of 16S rDNA from the genus Bifidobacterium in comparison with Group A” value [3] was “significantly increased” and the “copy number of 16S rDNA from Lactobacillus, Group E versus Group A” value (The genus Lactobacillus) was “did not have significant difference”. For the same compound, the “copy number of 16S rDNA from Akkermansia muciniphila, Group E versus Group A” value (Akkermansia muciniphila) was “did not have significant difference” and the “toxicity in mutagenicity, acute toxicity, subchronic toxicity, and chronic toxicity tests” value [4] was “no toxicity”.
For CCCC(=O)O [butyric acid], the inflammatory repair effect [5] is listed as “significant inflammatory repair effect”, the “fatty degeneration and inflammation in the liver by the intake of high-fat meals” value [6] is listed as “suppress” and the “values of AST, ALT, cholesterol, LDL in blood, neutral fat and fasting blood sugar levels, and insulin resistance index (HOMA-IR)” value [6] is listed as “normalize”. For the same compound, the “function and proliferation of β cells” value [7] was “improve”, the glucose homeostasis [7] was “improve” and the β cell death [7] was “decrease”. The proliferation rate [8] was “decrease”, the proliferation time [8] was “extend” and the “body weight and the body fat percentage” value ([9]; oral, 5 g/kg body weight per day (in terms of sodium butyrate), mice in which obesity has been induced by high-fat meals) was “reduce”. For the same compound, the “weight gain and increase of the body fat percentage by eating of high-fat meals” value ([9]; oral, 5 g/kg body weight per day (in terms of sodium butyrate), mice that are not obese) was “suppress”.
For CCCC(=O)[O-].[Na+] [sodium butyrate], the “increase of body weight and increase of the body fat percentage” value ([9]; mice fed on high-fat meals into which 5% by mass is mixed) is listed as “suppressed”.
